Columns and labels:
human MC4R = human MC4R (Homo sapiens, UniProt P32245); experiment: Reporter Gene Assay (CHO-6×CRE-luc+ reporter cell lines, luciferase); format: cell-based; conditions: for Emax: 4 h, read-out: % of MSH; for Emax / % of MSH: percentage of the fold stimulation in the NDP-αMSH control (1×10^−7 M NDP-αMSH), CHO-6×CRE-luc+ cells, human MC4R; for EC50: CHO-6×CRE-luc+ reporter cells expressing human MC4R, 4 h at 37° C., luciferase activity
Description: Reporter Gene Assay CHO-6×CRE-luc^+ reporter cell lines expressing human MC1R, MC3R, MC4R, and MC5R (GenBank accession numbers X65634, LO6155, S77415 and U08353) and the CHO host reporter gene cell line were propagated in complete medium in T225 flasks. Forty-eight hours prior to assay, cells were harvested with 2 ml of 0.05% trypsin, washed with complete medium and plated at a concentration of 4000 cells/well in complete medium. Sixteen hours prior to the assay, the medium was removed from the cells and replaced with 90 μl/well of serum-free DMEM/F12. At the time of the assay the compounds were added in a 10 μl volume and plates were incubated for 4 h at 37° C. in a cell culture incubator. The medium was aspirated followed by the addition of 50 μl of a 1:1 mixture of LucLiteTM and dPBS containing 1 mM CaCl2 and 1 mM MgCl2. The plates were then sealed and subjected to dark adaptation at room temperature for 10 min before luciferase activity was quantitated on a TopCountTM microplate scintillation counter (Packard) using 3 s/well count time. The NDP-αMSH and […]-5 concentration-response curve data were expressed as a percentage of the fold stimulation in the NDP-αMSH control for each receptor subtype. The control value is the average of duplicate wells treated with 1×10^-7 M NDP-αMSH.

human MC4R, sequence (P32245 whole entry): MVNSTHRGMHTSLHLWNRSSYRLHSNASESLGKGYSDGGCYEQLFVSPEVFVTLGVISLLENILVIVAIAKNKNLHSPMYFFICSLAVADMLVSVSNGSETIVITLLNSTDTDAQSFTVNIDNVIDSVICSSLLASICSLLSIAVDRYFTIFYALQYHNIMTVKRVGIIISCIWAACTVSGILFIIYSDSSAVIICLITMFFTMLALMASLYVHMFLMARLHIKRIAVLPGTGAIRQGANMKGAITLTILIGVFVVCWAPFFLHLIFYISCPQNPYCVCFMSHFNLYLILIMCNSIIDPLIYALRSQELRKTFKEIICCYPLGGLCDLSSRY

Row | SMILES | Emax (human MC4R) [%] | EC50 (human MC4R) [nM] | melting point [°C] | % of MSH (human MC4R) [%]
1 | Cc1cc(C)c2c(c1)N(C(=O)CN1C(=O)[C@@H](Cc3n[nH]c4c3CCCC4)C(=O)N(c3ccccc3)c3ccccc31)CCCC2 [Example 6, (3R)-1-[2-(6,8-dimethyl-2,3,4,5-tetrahydro-1H-1-benzazepin-1-yl)-2-oxoethyl]-5-phenyl-3-(4,5,6,7-tetrahydro-1H-indazol-3-ylmethyl)-1H-1,5-benzodiazepine-2,4(3H,5H)-dione] | 35 | 257 | – | –
2 | COc1ccc2c(c1)CCCCN2C(=O)CN1C(=O)C(Cc2n[nH]c3ccccc23)C(=O)N(c2ccccc2)c2ccccc21 (centres unmarked) [Example 2, 3-(1H-indazol-3-ylmethyl)-1-[2-(7-methoxy-2,3,4,5-tetrahydro-1H-1-benzazepin-1-yl)-2-oxoethyl]-5-phenyl-1H-1,5-benzodiazepine-2,4(3H,5H)-dione] | 42 | 288 | 215 to 230 | –
3 | COc1cccc2c1CCCCN2C(=O)CN1C(=O)C(Cc2n[nH]c3ccccc23)C(=O)N(c2ccccc2)c2ccccc21 (racemic) [Example 4, 3-(1H-indazol-3-ylmethyl)-1-[2-(6-methoxy-2,3,4,5-tetrahydro-1H-1-benzazepin-1-yl)-2-oxoethyl]-5-phenyl-1H-1,5-benzodiazepine-2,4(3H,5H)-dione] | 45 | 178 | – | –
4 | COc1cccc2c1CCCCN2C(=O)CN1C(=O)[C@@H](Cc2n[nH]c3c2CCCC3)C(=O)N(c2ccccc2)c2ccccc21 [Example 7, (3R)-1-[2-(6-methoxy-2,3,4,5-tetrahydro-1H-1-benzazepin-1-yl)-2-oxoethyl]-5-phenyl-3-(4,5,6,7-tetrahydro-1H-indazol-3-ylmethyl)-1H-1,5-benzodiazepine-2,4(3H,5H)-dione] | 41 | 158 | – | –
5 | O=C(CN1C(=O)C(Cc2n[nH]c3ccccc23)C(=O)N(c2ccccc2)c2ccccc21)N1CCCCc2ccccc21 (racemic) [Example 1, 3-(1H-indazol-3-ylmethyl)-1-[2-oxo-2-(2,3,4,5-tetrahydro-1H-1-benzazepin-1-yl)ethyl]-5-phenyl-1H-1,5-benzodiazepine-2,4(3H,5H)-dione] | 60 | 309 | – | –
6 | Cc1cc(C)c2c(c1)N(C(=O)CN1C(=O)C(Cc3n[nH]c4ccccc34)C(=O)N(c3ccccc3)c3ccccc31)CCCC2 (racemic) [Example 3, 1-[2-(6,8-dimethyl-2,3,4,5-tetrahydro-1H-1-benzazepin-1-yl)-2-oxoethyl]-3(1H-indazol-3-ylmethyl)-5-phenyl-1H-1,5-benzodiazepine-2,4(3H,5H)-dione] | 47 | 60.3 | – | –
7 | COc1ccc(N(C(=O)CN2C(=O)C(Cc3n[nH]c4ccccc34)(OC)C(=O)N(c3cccnc3)c3ccccc32)C(C)C)cc1 (single isomer, unassigned) [Example 9, 2-[3-(1H-indazol-3-ylmethyl)-3-methoxy-2,4-dioxo-5-pyridin-3-yl-2,3,4,5-tetrahydro-1H-1,5-benzodiazepin-1-yl]-N-isopropyl-N-(4-methoxyphenyl)acetamide] | – | 158 | – | 68
8 | COc1ccc(N(C(=O)CN2C(=O)C(Cc3n[nH]c4ccccc34)(OC)C(=O)N(c3cccnc3)c3ccccc32)C(C)C)cc1 (single isomer, unassigned) [Example 10, 2-[3-(1H-indazol-3-ylmethyl)-3-methoxy-2,4-dioxo-5-pyridin-3-yl-2,3,4,5-tetrahydro-1H-1,5-benzodiazepin-1-yl]-N-isopropyl-N-(4-methoxyphenyl)acetamide] | – | 200 | – | 29
9 | COc1ccc(N(C(=O)CN2C(=O)C(Cc3n[nH]c4ccccc34)(OC)C(=O)N(c3cccnc3)c3ccccc32)C(C)C)cc1 (racemic) [Example 8, 2-[3-(1H-indazol-3-ylmethyl)-3-methoxy-2,4-dioxo-5-pyridin-3-yl-2,3,4,5-tetrahydro-1H-1,5-benzodiazepin-1-yl]-N-isopropyl-N-(4-methoxyphenyl)acetamide] | 74 | 251 | – | –
10 | COC1(Cc2n[nH]c3ccccc23)C(=O)N(CC(=O)N2CCCCc3ccccc32)c2ccccc2N(c2ccccc2)C1=O (centres unmarked) [Example 11, 3-(1H-indazol-3-ylmethyl)-3-methoxy-1-[2-oxo-2-(2,3,4,5-tetrahydro-1H-1-benzazepin-1-yl)ethyl]-5-phenyl-1H-1,5-benzodiazepine-2,4(3H,5H)-dione] | 59 | 112 | – | –
11 | COc1cccc2c1CCCCN2C(=O)CN1C(=O)[C@@H](Cc2n[nH]c3ccccc23)C(=O)N(c2ccccc2)c2ccccc21 [Example 5, (3R)-3-(1H-indazol-3-ylmethyl)-1-[2-(6-methoxy-2,3,4,5-tetrahydro-1H-1-benzazepin-1-yl)-2-oxoethyl]-5-phenyl-1H-1,5-benzodiazepine-2,4(3H,5H)-dione] | 44 | 282 | 186 to 214 | –
12 | O=C(CN1C(=O)C(Cc2n[nH]c3cc(F)ccc23)C(=O)N(c2ccccc2)c2ccccc21)N1CCCCc2ccccc21 (centres unmarked) [Example 12, 3-[(6-fluoro-1H-indazol-3-yl)methyl]-1-[2-oxo-2-(2,3,4,5-tetrahydro-1H-1-benzazepin-1-yl)ethyl]-5-phenyl-1H-1,5-benzodiazepine-2,4(3H,5H)-dione] | 52 | 174 | – | –

Source: patent US7169773B2, “Compounds” (SmithKline Beecham Corporation, priority 2004, dated 2007)
